Columns and labels:
[1] = tested on: PKB Ser473 phosphorylation in Rat1-myr-HA-p110 beta cells; assay: Reverse protein array assay, PKB Ser473 phosphorylation in Rat1-myr-p110 beta cells; format: cell-based; details: 0.5 h, pAkt Ser473, 30 minutes incubation, read-out: p-PKB IC50
In short: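 After at least 20 h of culture, the p110 isoform-transfected Rat1 lines receive compound in an 8-step dilution series, keeping DMSO at 0.2%, for 30 minutes. Cells are then lysed and lysates arrayed on chips for fluorescence detection of Ser473-phosphorylated PKB.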

[2] = tested on: S6 Ribosomal Protein phosphorylation Ser235/236 in TSC1 null mouse embryo fibroblast (MEF) cells; assay: Reverse protein array assay, S6 Ribosomal Protein phosphorylation Ser235/236 in TSC1 null MEF cells; format: cell-based; details: 1 h, pS6 ribosomal protein Ser235/236, 60 minutes incubation, read-out: p-S6 IC50
In short: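 TSC1−/− MEFs, seeded and held ≥20 h at 37 °C/5% CO2, were exposed to 8-step serial compound dilutions (0.02% DMSO final; DMSO vehicle control) for 60 min at 37 °C. Cells were then lysed on ice for 10 min and lysates spotted onto reverse protein array chips.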

[3] = molecular target: T1, PI3K alpha (Homo sapiens, UniProt P42336); assay: PI3K alpha kinase assay (Kinase-Glo luminescence); format: biochemical
T1 construct: p85(iSH2) fusion partner (see partner chain) (N); His tag (C); made in house; host or cells: baculovirus; Tn5 (Trichoplusia ni) or TiniPro insect cells
In short: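 Compounds are titrated at 8 concentrations and mixed with PI3Kα protein (EMV B1075, 10 nM) in phosphatidylinositol (10 μg/mL). ATP at 1 μM starts the 60-minute room-temperature reaction, which is stopped with Kinase-Glo before luminescence reading. Four-parameter curve fitting gives IC50.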

T1 sequence (P42336 with tags, fused parts or gaps limits assumed): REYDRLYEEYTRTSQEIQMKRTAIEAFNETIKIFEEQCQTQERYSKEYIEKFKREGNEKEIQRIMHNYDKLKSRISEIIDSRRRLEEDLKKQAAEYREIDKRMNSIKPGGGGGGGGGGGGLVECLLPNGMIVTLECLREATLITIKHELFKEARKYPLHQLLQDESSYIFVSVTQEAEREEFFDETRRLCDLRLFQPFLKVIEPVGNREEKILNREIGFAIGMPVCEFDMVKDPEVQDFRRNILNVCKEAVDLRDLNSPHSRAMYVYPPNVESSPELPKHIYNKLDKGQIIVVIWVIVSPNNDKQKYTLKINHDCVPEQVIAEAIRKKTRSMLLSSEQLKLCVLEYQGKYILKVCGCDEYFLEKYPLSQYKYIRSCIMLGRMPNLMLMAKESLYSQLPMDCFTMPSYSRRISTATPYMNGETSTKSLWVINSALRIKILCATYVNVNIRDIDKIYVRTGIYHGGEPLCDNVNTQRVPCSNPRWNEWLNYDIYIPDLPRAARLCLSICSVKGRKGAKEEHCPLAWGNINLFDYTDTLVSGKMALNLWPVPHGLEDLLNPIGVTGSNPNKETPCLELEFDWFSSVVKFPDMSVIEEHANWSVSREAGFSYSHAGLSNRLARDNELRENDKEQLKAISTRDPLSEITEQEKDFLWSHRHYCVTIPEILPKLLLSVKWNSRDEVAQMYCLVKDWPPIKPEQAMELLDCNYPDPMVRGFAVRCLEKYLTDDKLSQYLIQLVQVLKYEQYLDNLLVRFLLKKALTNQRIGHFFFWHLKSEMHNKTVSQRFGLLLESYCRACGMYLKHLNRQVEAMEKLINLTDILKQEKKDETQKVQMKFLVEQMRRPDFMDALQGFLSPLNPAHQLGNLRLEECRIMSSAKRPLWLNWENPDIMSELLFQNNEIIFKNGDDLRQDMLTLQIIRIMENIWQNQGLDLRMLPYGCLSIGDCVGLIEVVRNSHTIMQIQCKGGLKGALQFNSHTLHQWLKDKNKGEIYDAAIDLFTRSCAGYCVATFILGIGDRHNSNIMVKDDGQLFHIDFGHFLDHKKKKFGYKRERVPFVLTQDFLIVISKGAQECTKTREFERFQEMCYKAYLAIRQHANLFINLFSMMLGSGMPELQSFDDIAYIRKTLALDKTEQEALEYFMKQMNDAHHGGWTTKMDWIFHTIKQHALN

| SMILES | IC50 [1] [nM] | IC50 [2] [nM] | IC50 [3] [nM] |
| --- | --- | --- | --- |
| CCOc1cccc(-c2ccc3ncc4c(c3c2)n(-c2cn(C)nc2C)c(=O)n4C)c1 [Example 57, 1-(1,3-Dimethyl-1H-pyrazol-4-yl)-8-(3-ethoxy-phenyl)-3-methyl-1,3-dihydro-imidazo[4,5-c]quinolin-2-one] | 106 | 5 | 38 |
| COc1ncc(-c2ccc3ncc4c(c3c2)n(-c2cn(C)nc2C)c(=O)n4C)cc1N(C)C(C)=O [Example 62, N-{5-[1-(1,3-Dimethyl-1H-pyrazol-4-yl)-3-methyl-2-oxo-2,3-dihydro-1H-imidazo[4,5-c]quinolin-8-yl]-2-methoxy-pyridin-3-yl}-N-methyl-acetamide] | 516 | 98 | 61 |
| CNc1ncc(-c2ccc3ncc4c(c3c2)n(-c2c(C)nn(C)c2C)c(=O)n4C)cn1 [Example 80.2] | 196 | 28 | 42 |
| Cc1nn(C)cc1-n1c(=O)n(C)c2cnc3ccc(-c4cnc(N)nc4)cc3c21 [Example 81.1, 8-(2-Amino-pyrimidin-5-yl)-1-(1,3-dimethyl-1H-pyrazol-4-yl)-3-methyl-1,3-dihydro-imidazo[4,5-c]quinolin-2-one] | 18 | 1.69 | 75 |
| Cc1nn(C)cc1-n1c(=O)n(C)c2cnc3ccc(-c4cccc(OC(C)C)c4F)cc3c21 [Example 83, 1-(1,3-Dimethyl-1H-pyrazol-4-yl)-8-(2-fluoro-3-isopropoxy-phenyl)-3-methyl-1,3-dihydro-imidazo[4,5-c]quinolin-2-one] | 353 | 38 | 74 |
| COCCOc1cc(-c2ccc3ncc4c(c3c2)n(-c2cn(C)nc2C)c(=O)n4C)cnc1C [Example 86.2, 1-(1,3-Dimethyl-1H-pyrazol-4-yl)-8-[5-(2-methoxy-ethoxy)-6-methyl-pyridin-3-yl]-3-methyl-1,3-dihydro-imidazo[4,5-c]quinolin-2-one] | 53 | 5 | 9 |
| CCNc1cc(-c2ccc3ncc4c(c3c2)n(-c2c(C)nn(CCOC)c2C)c(=O)n4C)cnc1C [Example 87.4, 8-(5-Ethylamino-6-methyl-pyridin-3-yl)-1-[1-(2-methoxy-ethyl)-3,5-dimethyl-1H-pyrazol-4-yl]-3-methyl-1,3-dihydro-imidazo[4,5-c]quinolin-2-one] | 85 | 41 | 42 |
| Cc1ncc(-c2ccc3ncc4c(c3c2)n(-c2cn(C)nc2C)c(=O)n4C)cc1N [Example 88.2, 8-(5-Amino-6-methyl-pyridin-3-yl)-1-(1,3-dimethyl-1H-pyrazol-4-yl)-3-methyl-1,3-dihydro-imidazo[4,5-c]quinolin-2-one] | 28 | 7 | 17 |
| CCNc1cc(-c2ccc3ncc4c(c3c2)n(-c2cn(C)nc2Cl)c(=O)n4C)cnc1OC [Example 90.1, 1-(3-Chloro-1-methyl-1H-pyrazol-4-yl)-8-(5-ethylamino-6-methoxy-pyridin-3-yl)-3-methyl-1,3-dihydro-imidazo[4,5-c]quinolin-2-one] | < 5 | < 0.5 | 43 |
| Cc1nn(C)cc1-n1c(=O)n(C)c2cnc3ccc(-c4ccc(N5CCN(C)CC5)nc4)cc3c21 [Example 96, 1-(1,3-Dimethyl-1H-pyrazol-4-yl)-3-methyl-8-[6-(4-methyl-piperazin-1-yl)-pyridin-3-yl]-1,3-dihydro-imidazo[4,5-c]quinolin-2-one] | 37 | 7 | 47 |
| COc1ccc(-c2ccc3ncc4c(c3c2)n(-c2cn(CC(=O)N(C)C)nc2C)c(=O)n4C)cn1 [Example 102, 2-{4-[8-(6-Methoxy-pyridin-3-yl)-3-methyl-2-oxo-2,3-dihydro-imidazo[4,5-c]quinolin-1-yl]-3-methyl-pyrazol-1-yl}-N,N-dimethyl-acetamide] | 34 | < 5 | 13 |
| CCn1cc(-n2c(=O)n(C)c3cnc4ccc(-c5ccc(COC)nc5)cc4c32)c(C)n1 [Example 104, 1-(1-Ethyl-3-methyl-1H-pyrazol-4-yl)-8-(6-methoxymethyl-pyridin-3-yl)-3-methyl-1,3-dihydro-imidazo[4,5-c]quinolin-2-one] | 37 | 39 | 79 |
| Cc1nn(C(C)C)cc1-n1c(=O)n(C)c2cnc3ccc(-c4ccc(C(N)=O)nc4)cc3c21 [Example 112, 5-[1-(1-Isopropyl-3-methyl-1H-pyrazol-4-yl)-3-methyl-2-oxo-2,3-dihydro-1H-imidazo[4,5-c]quinolin-8-yl]-pyridine-2-carboxylic acid amide] | 73 | 60 | 79 |
| Cc1nn(C)cc1-n1c(=O)n(C)c2cnc3ccc(-c4cccc(N(C)S(C)(=O)=O)c4)cc3c21 [Example 117, N-{3-[1-(1,3-Dimethyl-1H-pyrazol-4-yl)-3-methyl-2-oxo-2,3-dihydro-1H-imidazo[4,5-c]quinolin-8-yl]-phenyl}-N-methyl-methanesulfonamide] | 659 | 154 | 58 |
| CNc1ccc(-c2ccc3ncc4c(c3c2)n(-c2cn(C(C)C)nc2C)c(=O)n4C)cn1 [Example 118.1, 1-(1-isopropyl-3-methyl-1H-pyrazol-4-yl)-3-methyl-8-(6-methylamino-pyridin-3-yl)-1,3-dihydro-imidazo[4,5-c]quinolin-2-one] | 14 | 5 | 26 |
| CNc1ccc(-c2ccc3ncc4c(c3c2)n(-c2cn(CC(=O)N(C)C)nc2C)c(=O)n4C)cn1 [Example 118.3, N,N-Dimethyl-2-{3-methyl-4-[3-methyl-8-(6-methylamino-pyridin-3-yl)-2-oxo-2,3-dihydro-imidazo[4,5-c]quinolin-1-yl]-pyrazol-1-yl}-acetamide] | 43 | 15 | 16 |
| CNc1ccc(-c2ccc3ncc4c(c3c2)n(-c2cn(C)nc2Cl)c(=O)n4C)cn1 [Example 118.5, 1-(3-Chloro-1-methyl-1H-pyrazol-4-yl)-3-methyl-8-(6-methylamino-pyridin-3-yl)-1,3-dihydro-imidazo[4,5-c]quinolin-2-one] | < 5 | < 0.5 | 9 |
| CCNc1cncc(-c2ccc3ncc4c(c3c2)n(-c2cn(C)nc2C)c(=O)n4C)c1 [Example 122, 1-(1,3-Dimethyl-1H-pyrazol-4-yl)-8-(5-ethylamino-pyridin-3-yl)-3-methyl-1,3-dihydro-imidazo[4,5-c]quinolin-2-one] | 22 | < 0.5 | 14 |
| CCOc1ccc(-c2ccc3ncc4c(c3c2)n(-c2cn(CCOC)nc2C)c(=O)n4C)cn1 [Example 131, 8-(6-Ethoxy-pyridin-3-yl)-1-[1-(2-methoxy-ethyl)-3-methyl-1H-pyrazol-4-yl]-3-methyl-1,3-dihydro-imidazo[4,5-c]quinolin-2-one] | 29 | 5 | 161 |
| Cc1nn(C)cc1-n1c(=O)n(C)c2cnc3ccc(-c4cnc(N)c(F)c4)cc3c21 [Example 142.2, 8-(6-Amino-5-fluoro-pyridin-3-yl)-1-(1,3-dimethyl-1H-pyrazol-4-yl)-3-methyl-1,3-dihydro-imidazo[4,5-c]quinolin-2-one] | 11 | < 0.5 | 18 |
| [2H]C([2H])([2H])Nc1ncc(-c2ccc3ncc4c(c3c2)n(-c2c(C)nn(C)c2C)c(=O)n4C)cc1C(F)(F)F [Example 143, 3-Methyl-8-(6-trideuteromethylamino-5-trifluoromethyl-pyridin-3-yl)-1-(1,3,5-trimethyl-1H-pyrazol-4-yl)-1,3-dihydro-imidazo[4,5-c]quinolin-2-one] | 57 | 9 | 19 |
| CCNc1ncc(-c2ccc3ncc4c(c3c2)n(-c2c(C)nn(C)c2C)c(=O)n4C)cc1C(F)(F)F [Example 145.1, 8-(6-Ethylamino-5-trifluoromethyl-pyridin-3-yl)-3-methyl-1-(1,3,5-trimethyl-1H-pyrazol-4-yl)-1,3-dihydro-imidazo[4,5-c]quinolin-2-one] | 168 | 50 | 42 |
| CNc1ncc(-c2ccc3ncc4c(c3c2)n(-c2cn(C(C)C)nc2C)c(=O)n4C)cc1Cl [Example 146.3, 8-(5-Chloro-6-methylamino-pyridin-3-yl)-1-(1-isopropyl-3-methyl-1H-pyrazol-4-yl)-3-methyl-1,3-dihydro-imidazo[4,5-c]quinolin-2-one] | 119 | 3 | 50 |
| CNc1ncc(-c2ccc3ncc4c(c3c2)n(-c2c(C)noc2C)c(=O)n4C)cc1Cl [Example 146.6, 8-(5-Chloro-6-methylamino-pyridin-3-yl)-1-(3,5-dimethyl-isoxazol-4-yl)-3-methyl-1,3-dihydro-imidazo[4,5-c]quinolin-2-one] | 428 | 278 | 92 |
| CCNc1ncc(-c2ccc3ncc4c(c3c2)n(-c2cn(C)nc2C)c(=O)n4C)cc1Cl [Example 147, 8-(5-Chloro-6-ethylamino-pyridin-3-yl)-1-(1,3-dimethyl-1H-pyrazol-4-yl)-3-methyl-1,3-dihydro-imidazo[4,5-c]quinolin-2-one] | 30 | 5.53 | 25 |

Reference: patent US20140005163A1 (NOVARTIS AG, priority 2010, published 2014)
